From publication PMC11480411, “Mucosal sugars delineate pyrazine vs pyrazinone autoinducer signaling in Klebsiella oxytoca” (Nature Communications, 2024)

Experiments:
Assay in all cases: PRESTO-Tango GPCR screen
Assay type in all cases: cell-based
Conditions in all cases: 100 µM
ADRA1B = target: T1, ADRA1B (Homo sapiens, UniProt P35368)
T1 construct: purchased PRESTO-Tango GPCR kit (Roth lab / Addgene)
In short: (§1)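 Steps: HTLA cells plated; next day, GPCR-Tango plasmid delivered with polyethylenimine; 16-24 h later, medium swapped for DMEM with 10 mM HEPES plus compound (100 μM final); 20 h later, Bright-Glo added and luminescence measured; fold over PBS computed.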

CCR7 = target: T2, CCR7 (Homo sapiens, UniProt P32248)
T2 construct: purchased PRESTO-Tango GPCR kit (Roth lab / Addgene)
In short: as §1

CHRM2 = target: T3, CHRM2 (Homo sapiens, UniProt P08172)
T3 construct: purchased PRESTO-Tango GPCR kit (Roth lab / Addgene)
In short: as §1

CXCR6 = target: T4, CXCR6 (Homo sapiens, UniProt O00574)
T4 construct: purchased PRESTO-Tango GPCR kit (Roth lab / Addgene)
In short: as §1

EDNRB = target: T5, EDNRB (Homo sapiens, UniProt P24530)
T5 construct: purchased PRESTO-Tango GPCR kit (Roth lab / Addgene)
In short: as §1

F2RL3 = target: T6, F2RL3 (Homo sapiens, UniProt Q96RI0)
T6 construct: purchased PRESTO-Tango GPCR kit (Roth lab / Addgene)
In short: as §1

FFA3 = target: T7, FFA3 (Homo sapiens, UniProt O14843)
T7 construct: purchased PRESTO-Tango GPCR kit (Roth lab / Addgene)
In short: as §1

GCGR = target: T8, GCGR (Homo sapiens, UniProt P47871)
T8 construct: purchased PRESTO-Tango GPCR kit (Roth lab / Addgene)
In short: as §1

GLP2R = target: T9, GLP2R (Homo sapiens, UniProt O95838)
T9 construct: purchased PRESTO-Tango GPCR kit (Roth lab / Addgene)
In short: as §1

GPR1 = target: T10, GPR1 (Homo sapiens, UniProt P46091)
T10 construct: purchased PRESTO-Tango GPCR kit (Roth lab / Addgene)
In short: as §1

GPR113 = target: T11, GPR113 (Homo sapiens, UniProt Q8IZF5)
T11 construct: purchased PRESTO-Tango GPCR kit (Roth lab / Addgene)
In short: as §1

GPR116 = target: T12, GPR116 (Homo sapiens, UniProt Q8IZF2)
T12 construct: purchased PRESTO-Tango GPCR kit (Roth lab / Addgene)
In short: as §1

GPR142 = target: T13, GPR142 (Homo sapiens, UniProt Q7Z601)
T13 construct: purchased PRESTO-Tango GPCR kit (Roth lab / Addgene)
In short: as §1

GPR182 = target: T14, GPR182 (Homo sapiens, UniProt O15218)
T14 construct: purchased PRESTO-Tango GPCR kit (Roth lab / Addgene)
In short: as §1

GPR25 = target: T15, GPR25 (Homo sapiens, UniProt O00155)
T15 construct: purchased PRESTO-Tango GPCR kit (Roth lab / Addgene)
In short: as §1

GPR27 = target: T16, GPR27 (Homo sapiens, UniProt Q9NS67)
T16 construct: purchased PRESTO-Tango GPCR kit (Roth lab / Addgene)
In short: as §1

GPR3 = target: T17, GPR3 (Homo sapiens, UniProt P46089)
T17 construct: purchased PRESTO-Tango GPCR kit (Roth lab / Addgene)
In short: as §1

GPR4 = target: T18, GPR4 (Homo sapiens, UniProt P46093)
T18 construct: purchased PRESTO-Tango GPCR kit (Roth lab / Addgene)
In short: as §1

GPR85 = target: T19, GPR85 (Homo sapiens, UniProt P60893)
T19 construct: purchased PRESTO-Tango GPCR kit (Roth lab / Addgene)
In short: as §1

GPR87 = target: T20, GPR87 (Homo sapiens, UniProt Q9BY21)
T20 construct: purchased PRESTO-Tango GPCR kit (Roth lab / Addgene)
In short: as §1

GRM5 = target: T21, GRM5 (Homo sapiens, UniProt P41594)
T21 construct: purchased PRESTO-Tango GPCR kit (Roth lab / Addgene)
In short: as §1

HCTR1 = target: T22, HCTR1 (Homo sapiens, UniProt O43613)
T22 construct: purchased PRESTO-Tango GPCR kit (Roth lab / Addgene)
In short: as §1

HCTR2 = target: T23, HCTR2 (Homo sapiens, UniProt O43614)
T23 construct: purchased PRESTO-Tango GPCR kit (Roth lab / Addgene)
In short: as §1

LTB4R2B = target: T24, LTB4R2B (Homo sapiens, UniProt Q9NPC1)
T24 construct: purchased PRESTO-Tango GPCR kit (Roth lab / Addgene)
In short: as §1

MCHR1 = target: T25, MCHR1 (Homo sapiens, UniProt Q99705)
T25 construct: purchased PRESTO-Tango GPCR kit (Roth lab / Addgene)
In short: as §1

NPY2R = target: T26, NPY2R (Homo sapiens, UniProt P49146)
T26 construct: purchased PRESTO-Tango GPCR kit (Roth lab / Addgene)
In short: as §1

NTSR2 = target: T27, NTSR2 (Homo sapiens, UniProt O95665)
T27 construct: purchased PRESTO-Tango GPCR kit (Roth lab / Addgene)
In short: as §1

OPRM1 = target: T28, OPRM1 (Homo sapiens, UniProt P35372)
T28 construct: purchased PRESTO-Tango GPCR kit (Roth lab / Addgene)
In short: as §1

P2RY11 = target: T29, P2RY11 (Homo sapiens, UniProt Q96G91)
T29 construct: purchased PRESTO-Tango GPCR kit (Roth lab / Addgene)
In short: as §1

PRRP = target: T30, PRRP (Homo sapiens, UniProt P49683)
T30 construct: purchased PRESTO-Tango GPCR kit (Roth lab / Addgene)
In short: as §1

QRFP = target: T31, QRFP (Homo sapiens, UniProt Q96P65)
T31 construct: purchased PRESTO-Tango GPCR kit (Roth lab / Addgene)
In short: as §1

RXFP2 = target: T32, RXFP2 (Homo sapiens, UniProt Q8WXD0)
T32 construct: purchased PRESTO-Tango GPCR kit (Roth lab / Addgene)
In short: as §1

S1PR5 = target: T33, S1PR5 (Homo sapiens, UniProt Q9H228)
T33 construct: purchased PRESTO-Tango GPCR kit (Roth lab / Addgene)
In short: as §1

SSTR3 = target: T34, SSTR3 (Homo sapiens, UniProt P32745)
T34 construct: purchased PRESTO-Tango GPCR kit (Roth lab / Addgene)
In short: as §1

SUCNR1 = target: T35, SUCNR1 (Homo sapiens, UniProt Q9BXA5)
T35 construct: purchased PRESTO-Tango GPCR kit (Roth lab / Addgene)
In short: as §1

TACR2 = target: T36, TACR2 (Homo sapiens, UniProt P21452)
T36 construct: purchased PRESTO-Tango GPCR kit (Roth lab / Addgene)
In short: as §1

T2 sequence (P32248 25-378): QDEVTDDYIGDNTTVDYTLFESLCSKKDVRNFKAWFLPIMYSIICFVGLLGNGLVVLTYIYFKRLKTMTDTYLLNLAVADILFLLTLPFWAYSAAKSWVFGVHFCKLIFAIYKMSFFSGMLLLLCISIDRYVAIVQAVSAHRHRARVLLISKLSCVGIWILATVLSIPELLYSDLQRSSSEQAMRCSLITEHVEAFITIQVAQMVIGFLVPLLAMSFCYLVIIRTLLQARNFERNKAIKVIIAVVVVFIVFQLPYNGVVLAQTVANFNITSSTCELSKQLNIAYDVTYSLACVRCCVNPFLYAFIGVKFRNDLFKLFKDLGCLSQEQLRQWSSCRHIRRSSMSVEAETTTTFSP
T18 sequence (P46093 whole entry): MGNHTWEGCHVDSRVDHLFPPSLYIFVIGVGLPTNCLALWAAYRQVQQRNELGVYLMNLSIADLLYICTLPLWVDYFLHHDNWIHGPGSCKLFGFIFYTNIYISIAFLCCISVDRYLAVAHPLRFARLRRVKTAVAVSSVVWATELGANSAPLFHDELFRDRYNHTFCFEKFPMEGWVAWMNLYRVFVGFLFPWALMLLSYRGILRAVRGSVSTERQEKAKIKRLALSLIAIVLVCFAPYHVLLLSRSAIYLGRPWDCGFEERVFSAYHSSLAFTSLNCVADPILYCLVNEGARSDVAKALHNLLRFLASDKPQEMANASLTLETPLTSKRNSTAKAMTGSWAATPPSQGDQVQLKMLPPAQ
T6 sequence (Q96RI0 18-385): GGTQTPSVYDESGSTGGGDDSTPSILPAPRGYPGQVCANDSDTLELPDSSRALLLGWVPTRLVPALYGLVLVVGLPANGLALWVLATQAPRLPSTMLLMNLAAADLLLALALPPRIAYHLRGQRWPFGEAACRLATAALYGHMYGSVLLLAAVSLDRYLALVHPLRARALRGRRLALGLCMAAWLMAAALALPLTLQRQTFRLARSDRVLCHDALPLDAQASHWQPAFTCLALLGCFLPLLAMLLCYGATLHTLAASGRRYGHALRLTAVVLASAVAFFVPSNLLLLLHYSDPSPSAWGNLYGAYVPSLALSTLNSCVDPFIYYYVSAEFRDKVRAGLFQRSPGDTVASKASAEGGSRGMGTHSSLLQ
T23 sequence (O43614 whole entry): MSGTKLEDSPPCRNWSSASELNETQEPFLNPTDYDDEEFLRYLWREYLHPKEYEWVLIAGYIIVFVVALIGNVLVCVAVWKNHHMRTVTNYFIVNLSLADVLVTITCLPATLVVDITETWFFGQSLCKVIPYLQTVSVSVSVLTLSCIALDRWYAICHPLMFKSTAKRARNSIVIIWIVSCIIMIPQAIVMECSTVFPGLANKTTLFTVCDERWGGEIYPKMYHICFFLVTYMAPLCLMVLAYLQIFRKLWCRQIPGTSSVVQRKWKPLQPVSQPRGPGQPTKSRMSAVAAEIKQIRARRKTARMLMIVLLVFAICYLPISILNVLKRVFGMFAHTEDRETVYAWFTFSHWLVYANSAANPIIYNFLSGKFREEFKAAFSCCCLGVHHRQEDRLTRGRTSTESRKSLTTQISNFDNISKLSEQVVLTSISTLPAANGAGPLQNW
T10 sequence (P46091 whole entry): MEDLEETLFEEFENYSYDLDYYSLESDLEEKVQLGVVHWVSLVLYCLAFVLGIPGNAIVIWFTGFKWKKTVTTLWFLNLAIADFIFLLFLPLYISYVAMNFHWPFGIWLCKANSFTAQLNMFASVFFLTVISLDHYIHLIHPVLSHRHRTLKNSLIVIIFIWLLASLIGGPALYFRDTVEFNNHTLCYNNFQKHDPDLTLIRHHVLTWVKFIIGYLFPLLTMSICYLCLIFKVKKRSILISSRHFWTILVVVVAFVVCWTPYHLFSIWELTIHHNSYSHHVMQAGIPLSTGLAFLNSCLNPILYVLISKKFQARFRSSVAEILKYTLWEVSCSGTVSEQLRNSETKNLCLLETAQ
T26 sequence (P49146 whole entry): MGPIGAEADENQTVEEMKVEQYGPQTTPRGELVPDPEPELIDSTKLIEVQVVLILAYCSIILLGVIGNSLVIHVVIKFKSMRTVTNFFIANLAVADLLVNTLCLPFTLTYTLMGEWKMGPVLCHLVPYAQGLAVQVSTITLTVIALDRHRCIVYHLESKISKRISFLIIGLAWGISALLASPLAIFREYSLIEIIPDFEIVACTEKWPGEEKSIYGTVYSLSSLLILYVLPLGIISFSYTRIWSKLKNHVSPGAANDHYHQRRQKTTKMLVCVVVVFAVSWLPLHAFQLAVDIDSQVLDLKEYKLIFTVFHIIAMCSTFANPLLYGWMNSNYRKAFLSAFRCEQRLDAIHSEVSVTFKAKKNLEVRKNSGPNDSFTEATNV
T32 sequence (Q8WXD0 whole entry): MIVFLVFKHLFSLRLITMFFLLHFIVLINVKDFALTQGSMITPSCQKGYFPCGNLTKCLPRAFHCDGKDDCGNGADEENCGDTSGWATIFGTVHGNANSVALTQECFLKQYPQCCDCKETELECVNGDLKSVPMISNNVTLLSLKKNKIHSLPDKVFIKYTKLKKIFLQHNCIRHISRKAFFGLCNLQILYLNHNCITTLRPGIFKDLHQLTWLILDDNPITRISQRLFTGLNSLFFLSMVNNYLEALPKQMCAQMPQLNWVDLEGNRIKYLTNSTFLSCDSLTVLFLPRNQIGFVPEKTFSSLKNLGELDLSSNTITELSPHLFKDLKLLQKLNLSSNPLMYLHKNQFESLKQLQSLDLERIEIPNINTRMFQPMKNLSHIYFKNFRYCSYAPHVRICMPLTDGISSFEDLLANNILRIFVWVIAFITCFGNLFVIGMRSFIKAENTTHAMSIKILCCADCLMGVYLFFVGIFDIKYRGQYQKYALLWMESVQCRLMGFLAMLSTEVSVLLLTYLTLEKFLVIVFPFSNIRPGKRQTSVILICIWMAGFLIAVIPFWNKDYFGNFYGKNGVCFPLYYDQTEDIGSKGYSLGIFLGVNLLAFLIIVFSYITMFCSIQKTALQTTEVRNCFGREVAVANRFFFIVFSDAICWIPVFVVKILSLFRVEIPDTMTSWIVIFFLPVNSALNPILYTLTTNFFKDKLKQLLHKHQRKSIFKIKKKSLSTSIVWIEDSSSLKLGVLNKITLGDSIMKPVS
T25 sequence (Q99705 whole entry): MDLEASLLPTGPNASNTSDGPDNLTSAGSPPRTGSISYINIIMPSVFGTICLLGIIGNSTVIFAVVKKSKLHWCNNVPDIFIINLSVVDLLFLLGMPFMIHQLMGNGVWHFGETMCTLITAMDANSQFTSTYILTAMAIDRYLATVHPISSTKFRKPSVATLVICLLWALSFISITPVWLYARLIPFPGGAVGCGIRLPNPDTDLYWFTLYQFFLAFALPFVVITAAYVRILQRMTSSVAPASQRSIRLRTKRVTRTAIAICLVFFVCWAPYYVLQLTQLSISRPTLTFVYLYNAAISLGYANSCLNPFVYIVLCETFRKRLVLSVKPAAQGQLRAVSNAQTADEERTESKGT
T8 sequence (P47871 26-477): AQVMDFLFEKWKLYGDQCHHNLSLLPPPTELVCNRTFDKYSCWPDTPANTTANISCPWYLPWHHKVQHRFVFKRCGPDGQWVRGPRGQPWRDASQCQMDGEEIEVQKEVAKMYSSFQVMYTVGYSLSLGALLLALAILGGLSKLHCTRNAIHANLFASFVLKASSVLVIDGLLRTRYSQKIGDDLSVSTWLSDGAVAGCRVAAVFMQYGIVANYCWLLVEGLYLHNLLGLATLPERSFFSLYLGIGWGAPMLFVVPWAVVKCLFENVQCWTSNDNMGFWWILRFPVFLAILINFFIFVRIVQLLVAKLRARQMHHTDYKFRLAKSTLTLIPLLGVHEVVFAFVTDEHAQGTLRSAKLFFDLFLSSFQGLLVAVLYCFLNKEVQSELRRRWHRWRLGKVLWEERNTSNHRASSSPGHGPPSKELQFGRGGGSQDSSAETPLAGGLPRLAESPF
T13 sequence (Q7Z601 whole entry): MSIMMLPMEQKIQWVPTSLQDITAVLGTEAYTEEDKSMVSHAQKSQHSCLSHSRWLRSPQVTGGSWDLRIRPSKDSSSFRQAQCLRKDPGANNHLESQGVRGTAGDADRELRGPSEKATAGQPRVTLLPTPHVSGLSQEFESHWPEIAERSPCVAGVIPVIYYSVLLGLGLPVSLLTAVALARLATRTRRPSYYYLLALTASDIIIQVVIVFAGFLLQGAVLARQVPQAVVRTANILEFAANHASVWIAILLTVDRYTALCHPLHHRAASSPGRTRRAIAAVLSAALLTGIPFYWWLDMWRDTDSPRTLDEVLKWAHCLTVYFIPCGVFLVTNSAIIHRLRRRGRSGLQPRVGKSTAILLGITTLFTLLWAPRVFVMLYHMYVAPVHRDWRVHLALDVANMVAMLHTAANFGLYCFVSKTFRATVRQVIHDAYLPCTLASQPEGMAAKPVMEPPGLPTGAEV
T22 sequence (O43613 whole entry): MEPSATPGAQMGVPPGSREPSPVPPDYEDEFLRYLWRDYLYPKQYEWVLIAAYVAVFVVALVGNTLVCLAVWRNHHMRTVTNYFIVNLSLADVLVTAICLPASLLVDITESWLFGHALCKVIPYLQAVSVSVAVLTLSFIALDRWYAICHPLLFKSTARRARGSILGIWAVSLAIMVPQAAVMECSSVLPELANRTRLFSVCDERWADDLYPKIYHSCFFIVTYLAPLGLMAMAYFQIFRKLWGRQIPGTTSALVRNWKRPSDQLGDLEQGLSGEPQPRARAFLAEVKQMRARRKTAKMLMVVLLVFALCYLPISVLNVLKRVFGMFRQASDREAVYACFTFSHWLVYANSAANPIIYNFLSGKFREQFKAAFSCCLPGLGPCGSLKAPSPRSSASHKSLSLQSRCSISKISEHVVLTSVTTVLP

Row | SMILES | GPCR activation (heatmap value) (ADRA1B) | GPCR activation (heatmap value) (CCR7) | GPCR activation (heatmap value) (CHRM2) | GPCR activation (heatmap value) (CXCR6) | GPCR activation (heatmap value) (EDNRB) | GPCR activation (heatmap value) (F2RL3) | GPCR activation (heatmap value) (FFA3) | GPCR activation (heatmap value) (GCGR) | GPCR activation (heatmap value) (GLP2R) | GPCR activation (heatmap value) (GPR1) | GPCR activation (heatmap value) (GPR113) | GPCR activation (heatmap value) (GPR116) | GPCR activation (heatmap value) (GPR142) | GPCR activation (heatmap value) (GPR182) | GPCR activation (heatmap value) (GPR25) | GPCR activation (heatmap value) (GPR27) | GPCR activation (heatmap value) (GPR3) | GPCR activation (heatmap value) (GPR4) | GPCR activation (heatmap value) (GPR85) | GPCR activation (heatmap value) (GPR87) | further results
1 | CC(C)Cc1ncc(CCCCNC(=N)N)[nH]c1=O [3-Homo] | -0.4471 | -1.001 | 0.1441 | 1.014 | -0.6292 | -0.0006117 | -0.4191 | 0.3222 | -0.3479 | 0.03802 | -0.1784 | -0.4317 | -0.286 | -0.244 | -0.6766 | -0.5119 | -1.589 | 0.3486 | -0.7717 | -0.5192 | GPCR activation (heatmap value) (GRM5): -0.9141; GPCR activation (heatmap value) (HCTR1): 0.1163; GPCR activation (heatmap value) (HCTR2): -1.63; GPCR activation (heatmap value) (LTB4R2B): 0.02731; GPCR activation (heatmap value) (MCHR1): -1.3275; GPCR activation (heatmap value) (NPY2R): 0.3401; GPCR activation (heatmap value) (NTSR2): -0.1953; GPCR activation (heatmap value) (OPRM1): 0.127; GPCR activation (heatmap value) (P2RY11): 0.1373; GPCR activation (heatmap value) (PRRP): 1.001; GPCR activation (heatmap value) (QRFP): 0.525; GPCR activation (heatmap value) (RXFP2): 0.2908; GPCR activation (heatmap value) (S1PR5): -0.7802; GPCR activation (heatmap value) (SSTR3): 0.1422; GPCR activation (heatmap value) (SUCNR1): -0.1091; GPCR activation (heatmap value) (TACR2): 0.6939
2 | CC(C)Cc1ncc(CCCNC(=N)N)[nH]c1=O [compound 3] | 0.1702 | -2.336 | 0.33 | 0.09324 | 0.7397 | 0.3497 | -0.2613 | 0.3476 | 0.1898 | -0.7172 | -0.04557 | -0.4037 | -0.6317 | -0.4224 | -0.8885 | 0.1426 | -0.8156 | 0.5113 | -0.1892 | -0.4548 | GPCR activation (heatmap value) (GRM5): 0.02679; GPCR activation (heatmap value) (HCTR1): -0.3941; GPCR activation (heatmap value) (HCTR2): -0.2618; GPCR activation (heatmap value) (LTB4R2B): -1.038; GPCR activation (heatmap value) (MCHR1): -0.2593; GPCR activation (heatmap value) (NPY2R): 0.1932; GPCR activation (heatmap value) (NTSR2): -2.304; GPCR activation (heatmap value) (OPRM1): 1.469; GPCR activation (heatmap value) (P2RY11): -0.4085; GPCR activation (heatmap value) (PRRP): 1.542; GPCR activation (heatmap value) (QRFP): 0.1257; GPCR activation (heatmap value) (RXFP2): -0.001018; GPCR activation (heatmap value) (S1PR5): 0; GPCR activation (heatmap value) (SSTR3): -0.3508; GPCR activation (heatmap value) (SUCNR1): 0.1336; GPCR activation (heatmap value) (TACR2): 0.2945
